Measurements published in publication PMC6905855, “Agonist-specific voltage-dependent gating of lysosomal two-pore Na^+ channels” (eLife, 2019).
Values joined by “and” are separate entries in the source; they are usually repeats but may differ in a detail not shown here. Equal entries are not always repeated. “Also recorded” adds a separate entry of the source. Where two headings read alike, the source gives them in different places. Each block holds one compound with its values, some of them ahead of it.

Tests used:
[1] = target: T1, surface-expressing mutant TPC2 channel (TPC2^LL/AA) in HEK293 cells (Homo sapiens, UniProt Q8NHX9, L11A/L12A); assay: Whole-cell recordings of ITPC2-LL/AA; type: cell-based; conditions: for activation of whole-cell ITPC2-LL/AA (in words): bath application, symmetric Na^+, 100 µM where stated; for current density: whole cell recordings, individual recordings; for EC50: whole-cell recordings at −140 mV, TPC2^LL/AA-transfected HEK293 cells
T1 construct: expressed in transfected cells; host or cells: HEK293
Excerpt: We therefore characterized the responses of TPC2 channels to TCAs in detail using electrophysiological methods. We first performed whole-cell recordings in HEK293 cells that were transfected with surface-expressed TPC2 mutant channels (TPC2-L^11L^12-AA; abbreviated as TPC2^LL/AA hereafter).
(§1) All TPC1 and TPC2 mutants were generated with a site-directed mutagenesis kit (Qiagen) using EGFP- human TPC1 and TPC2 as the templates. All constructs were confirmed by DNA sequencing.
Cells were transfected with Lipofectamine 2000 (Invitrogen). After culture media were refreshed 18–24 hr post-transfection, cells were used for the electrophysiological assays 24–36 hr post-transfection.
All bath solutions were applied via a perfusion system that allowed complete solution exchange within a few seconds. […] Whole-cell currents were digitized at 10 kHz and filtered at 2 kHz.

hTPC2 = target: T2, hTPC2 (Homo sapiens, UniProt Q8NHX9); assay: Whole-endolysosome recordings of ITPC2; type: biochemical; parameters: Whole endo-lysosomal TPC2 current activated by LyNa-VAs, Test 3 / Whole endo-lysosomal TPC2 current activated by LyNa-VAs, mean: unit not given here; conditions: for ITPC2: whole endolysosome recordings with 100 µM of LyNa-VAs at −120 mV; for inactivation of ITPC2, I500ms / I10ms: @-120mV; for PX / PNa, Ca2+ / PX / PNa, K+ / PX / PNa, Na+: TPC2 WT, agonist-activated ITPC2
T2 construct: expressed in transfected cells; host or cells: Cos1 and HEK293

hTPC1 = target: T3, hTPC1 (Homo sapiens, UniProt Q9ULQ1); assay: Whole-endolysosome recordings of ITPC1; type: biochemical
T3 construct: expressed in transfected cells; host or cells: Cos1
Description: It was therefore of interest to explore whether TCAs/LyNa-VAs could also act on TPC1. To investigate this, we used two different voltage paradigms. […] Second, we used a tail current paradigm to measure the amplitude of the peak inward current at −120 mV following prolonged steps to various potentials (Figure 4E).
Figure 4. […] HP = 0 mV. […] Dotted lines in A indicate where the currents were measured. […] Data are presented as Mean ± S.E.M (n = 3 patches). […] (G) Normalized I-V plots of basal voltage-dependent currents in WT TPC1- and TPC1^R540I-transfected cells. […] Figure 4—source data 1. […] Figure 4—figure supplement 1. […] (A) A voltage protocol that elicited ITPC1 tail currents as shown in Figure 4E (from −140 to 100 mV with a ∆V = 20 mV, 1 s with a 10 s inter-step interval). Arrows indicate where tail currents were measured. (B) A voltage protocol that elicited ITPC1 tail currents as shown in C. […] HP = 0 mV. […] (A) Basal whole-endolysosome ITPC1 (left) or ITPC1-R540I (right) was elicited by voltage steps (−140 to +100 mV with ΔV = 20 mV) in the absence of PI(3,5)P2 in TPC1-transfected Cos1 cells ([She et al., 2019]). Tail currents were elicited at −120 mV. (B) The effects of PI(3,5)P2 (0.3 µM) on ITPC1 (left) and ITPC1-R540I (right) step currents. […] A preconditioning voltage (+80 mV, 0.1 s) was applied before voltage steps starting from −140 to 100 mV (0.5 s, ∆V = 20 mV).
as §1
(§2) Whole-endolysosome recordings were performed on manually isolated enlarged endolysosomes ([Wang et al., 2012]). In brief, a patch pipette was pressed against a cell and quickly pulled away to slice the cell membrane. Enlarged endolysosomes were released into a dish and identified by monitoring EGFP-TPC1/2 or the mCherry-TPC1/2 fluorescence. After formation of a gigaseal between the patch pipette and the enlarged endolysosome, capacitance transients were compensated. Voltage steps of several hundred mVs with millisecond duration were then applied to break into the vacuolar membrane. The whole-endolysosome configuration was verified by the re-appearance of capacitance transients after break-in.
(§3) Data were collected using an Axopatch 200A patch clamp amplifier, Digidata 1440, and pClamp 10.2 software (Axon Instruments). Whole-endolysosome currents were digitized at 10 kHz and filtered at 2 kHz. All experiments were conducted at room temperature (21–23°C), and all recordings were analyzed with pClamp 10.2, and Origin 8.0 (OriginLab, Northampton, MA). The permeability to cations (relative to PNa) was estimated based on following equations ([Lewis, 1979]) and Erev measurement under bi-ionic conditions:(1) PX/PNa=γNa/γX{[Na^+]Luminal/[X^+]Cytoplasmic}{exp([…])} (2) PCa/PNa=γNa/γCa{[Na^+]Cytoplasmic/[4[Ca^2+]Luminal}{exp(ErevF/RT)}{1+exp(ErevF/RT)} where R, T, F, Erev, and γ are, respectively, the gas constant, absolute temperature, Faraday constant, reversal potential, and activity coefficient. The liquid junction potentials were measured and corrected as described ([Neher, 1992]).

[2] = tested on: surface-expressing mutant TRPML1 channels (TRPML1^4A); assay: Whole-cell recordings of ITRPML1-4A; type: cell-based; conditions: TRPML1-4A wc; individual cells
TPC1/2 DKO HAP1 cells = assay: Whole-endolysosome recordings in TPC1/2 DKO HAP1 cells; type: biochemical, human
Excerpt: TCAs, with a general structure of an aromatic greasy core and an aliphatic chain containing a terminal amine, are lysosomotropic compounds that are known to be highly accumulating in the lysosomes due to proton trapping ([Beckmann et al., 2014]). We next tested the effects of LyNa-VAs in hTPC2-transfected Cos1 and HEK293 cells using whole-endolyosome patch-clamp.
Data are presented as Mean ± S.E.M (n = 3 patches). […] For panels B, D and F, individual data and Mean ± S.E.M are presented. *, p<0.05; **, p<0.01; ***, p<0.001; N.S., no significance. Figure 3—source data 1. […] Figure 3—figure supplement 1. […] Both individual data points and Mean ± S.E.M are presented (n ≥ 3 patches; also see individual data in Figure 3—figure supplement 1—source data 1). Figure 3—figure supplement 1—source data 1.
TPC1 and TPC2 CRISPR KO cells were generated in HAP1 cells using the CRISPR/Cas9 system. The TPC1 sequence (5'cttgcagtacttcagcaccc3', TPC1-sgRNA) and TPC2 sequence (5'ccccagcgtcgggctgctgc3', TPC2-sgRNA) were targeted with pSpCas9 (BB)−2A-puro vector (Addgene). HAP1 cells were co-transfected with TPC1 and TPC2-sgRNA expressing vector in the presence of Lipofectamine 2000 (In vitrogen) and selected with 2 μg/ml puromycin for 48 hr. The remaining cells were trypsinized and seeded into 96-well plate after a limiting dilution. When single cell clones were established, their genomic DNAs were extracted and amplified with following primers: TPC1-fw: 5’atggcccagacatgtgactc3’, TPC1-re: 5’ tgcctgtctccatcctctca3’; TPC2-fw: 5’tgagctgagcatgaggcaag3’, TPC2-re: 5’ aaaggacaagtggccctgag3’. The PCR amplicons were then sequenced to confirm the intended genetic disruption.
as §2
as §3, with “coefficient.” for “coefficient. The liquid junction potentials were measured and corrected as described ([Neher, 1992]).”

hTPC1^R540I = tested on: T4, hTPC1^R540I; assay: Whole-endolysosome recordings of ITPC1-R540I; type: biochemical, human
T4 construct: expressed in transfected cells; host or cells: Cos1

TPC2^N653G = tested on: T5, TPC2^N653G; assay: Whole-endolysosome recordings of ITPC2-N653G; type: biochemical, human; conditions: TPC2 N653G, agonist-activated current
T5 construct: expressed in transfected cells

[3] = PI(3,5)P2 0.3 µM, LyNa-VA1.2 100 µM, LyNA1 300 µM, individual tests, listed as pip2

T1 sequence (Q8NHX9 whole entry L11A/L12A): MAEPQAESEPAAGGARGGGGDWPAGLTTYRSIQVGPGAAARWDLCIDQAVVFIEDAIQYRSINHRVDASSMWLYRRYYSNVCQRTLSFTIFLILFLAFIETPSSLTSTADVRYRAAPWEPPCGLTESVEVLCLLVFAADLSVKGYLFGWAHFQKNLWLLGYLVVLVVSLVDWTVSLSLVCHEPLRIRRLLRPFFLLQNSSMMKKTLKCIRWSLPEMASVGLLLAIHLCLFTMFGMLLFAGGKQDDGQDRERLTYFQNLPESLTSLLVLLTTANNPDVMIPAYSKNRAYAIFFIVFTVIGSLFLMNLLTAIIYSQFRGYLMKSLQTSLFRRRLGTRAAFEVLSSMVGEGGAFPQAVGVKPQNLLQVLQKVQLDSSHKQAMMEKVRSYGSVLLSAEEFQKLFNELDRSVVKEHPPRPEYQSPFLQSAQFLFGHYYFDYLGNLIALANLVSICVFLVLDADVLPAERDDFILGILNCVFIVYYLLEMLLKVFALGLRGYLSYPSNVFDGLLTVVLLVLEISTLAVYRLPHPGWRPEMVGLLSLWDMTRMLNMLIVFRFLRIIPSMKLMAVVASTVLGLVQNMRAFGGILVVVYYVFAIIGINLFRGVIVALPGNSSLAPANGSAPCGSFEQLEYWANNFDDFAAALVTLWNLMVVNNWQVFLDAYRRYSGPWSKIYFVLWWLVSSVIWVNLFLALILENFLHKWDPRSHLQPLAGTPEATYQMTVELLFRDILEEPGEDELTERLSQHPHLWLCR
T2 sequence (Q8NHX9 whole entry): as the sequence (Q8NHX9 whole entry L11A/L12A) above, with A11L, A12L counted along it

activation of whole-cell ITPC2-LL/AA (in words) [1]: ITPC2 was evoked | current density ([1]; 5 µM): 7.8 pA/pF | EC50 ([1]; read-out: EC50): 60 ± 2 µM | ITPC2 (hTPC2): 1101 ± 508 pA | effect on whole-endolysosome ITPC1 (in words) (hTPC1): inhibited ITPC1 | Dose-dependent inhibition of TPC1 (ITPC1, value at 0 µM = 1) (hTPC1; 3 µM, individual patches): 0.9084 and 0.9958 and 1.027 | Dose-dependent inhibition of TPC1 (ITPC1, value at 0 µM = 1) (hTPC1; 3 µM, mean): 0.9772 | Dose-dependent inhibition of TPC1 (ITPC1, value at 0 µM = 1) (hTPC1; 10 µM, individual patches): 0.8547 and 1.003 and 0.8763 | Dose-dependent inhibition of TPC1 (ITPC1, value at 0 µM = 1) (hTPC1; 10 µM, mean): 0.9114 | Dose-dependent inhibition of TPC1 (ITPC1, value at 0 µM = 1) (hTPC1; 30 µM, individual patches): 0.8617 and 0.806 and 0.5194 | Dose-dependent inhibition of TPC1 (ITPC1, value at 0 µM = 1) (hTPC1; 30 µM, mean): 0.729 | Dose-dependent inhibition of TPC1 (ITPC1, value at 0 µM = 1) (hTPC1; 100 µM, individual patches): 0.4994 and 0.4103 and 0.291 | Dose-dependent inhibition of TPC1 (ITPC1, value at 0 µM = 1) (hTPC1; 100 µM, mean): 0.4003 | Dose-dependent inhibition of TPC1 (ITPC1, value at 0 µM = 1) (hTPC1; 300 µM, individual patches): 0.197 and 0.08086 and 0.1214 | Dose-dependent inhibition of TPC1 (ITPC1, value at 0 µM = 1) (hTPC1; 300 µM, mean): 0.1331 | IC50 (hTPC1; whole-endolysosome, n = 3 patches, read-out: IC50, inhibition of TPC1): 77 ± 2 µM
Compound: CN(C)CCCN1c2ccccc2Sc2ccc(Cl)cc21 [LyNa-VA2.1, Chlorpromazine]
current density ([1]; 10 µM): 11.2294 pA/pF and 9.959 pA/pF and 11.6261 pA/pF and 6.052 pA/pF | current density ([1]; 20 µM): 17.6973 pA/pF and 20.0248 pA/pF and 34.5739 pA/pF and 9.104 pA/pF | current density ([1]; 50 µM): 54.3211 pA/pF and 69.6612 pA/pF and 69.313 pA/pF and 27.4087 pA/pF | current density ([1]; 100 µM): 137.55 pA/pF and 140.785 pA/pF and 150.409 pA/pF and 87.5478 pA/pF | current density ([1]; 200 µM): 152.165 pA/pF and 168.074 pA/pF and 117.748 pA/pF

Compound: c1ccc2c(c1)Nc1ccccc1S2 [Phenothiazine]
activation of whole-cell ITPC2-LL/AA (in words) [1]: no significant activation | current density ([1]; 10 µM): 10.2273 pA/pF and 10.0273 pA/pF and 9.7 pA/pF | current density ([1]; 20 µM): 11.0091 pA/pF and 7.509 pA/pF and 8.936 pA/pF | current density ([1]; 50 µM): 10.7545 pA/pF and 9.7 pA/pF and 10.2182 pA/pF | current density ([1]; 100 µM): 9.9 pA/pF and 8.064 pA/pF and 9.882 pA/pF | current density ([1]; 200 µM): 10.0545 pA/pF and 9.218 pA/pF and 9.555 pA/pF | EC50 [1]: No activation | Whole endo-lysosomal TPC2 current activated by LyNa-VAs, Test 1 (hTPC2; 100uM, individual recording, Test 1): 10.3 | Whole endo-lysosomal TPC2 current activated by LyNa-VAs, Test 2 (hTPC2; 100uM, individual recording, Test 2): -2.6 | Whole endo-lysosomal TPC2 current activated by LyNa-VAs, Test 3 (hTPC2; 100uM, individual recording, Test 3): 4.8 | Whole endo-lysosomal TPC2 current activated by LyNa-VAs, mean (hTPC2; 100uM, mean of n tests): 4.2 | ITPC2 (hTPC2): No activation

Compound: ML-SA1
current, whole-cell ITRPML1-4A [2]: 4274.3 pA and 5928.6 pA | activation of ITRPML1 in TPC1/2 DKO cells (in words) (TPC1/2 DKO HAP1 cells): readily activated ITRPML1

inactivation of ITPC2, I500ms / I10ms (hTPC2; [3]): 1.002 and 0.9763 and 0.9931 and 0.9868 | inactivation of ITPC2, I500ms / I10ms (hTPC2; mean): 0.9895 | Rectification index of ITPC2, I+80mV/I-80mV (hTPC2; [3]): 0.8422 and 1.096 and 1.053 and 1.001 | Rectification index of ITPC2, I+80mV/I-80mV (hTPC2; PI(3,5)P2 0.3 µM, LyNa-VA1.2 100 µM, LyNA1 300 µM, mean): 1.00 ± 0.06 | Rectification index of ITPC2, I+80mV/I-80mV (hTPC2; PI(3,5)P2 0.3 µM, LyNa-VA1.2 100 µM, LyNA1 300 µM, mean, listed as pip2): 0.9981 | PX / PNa, Ca2+ (hTPC2; individual): 0.016 and 0.034 | PX / PNa, Na+ (hTPC2; individual): 0.9921 and 1.104 and 1 | PX / PNa, Ca2+ (hTPC2; mean): 0.022 | PX / PNa, K+ (hTPC2; mean): 0.05731 | PX / PNa, Na+ (hTPC2; mean): 1.032 | I@500ms/I@10ms (current decline at steady state) (hTPC2; voltage-step protocols, at all potentials): ~1.0 | effect on whole-endolysosome ITPC1 (in words) (hTPC1): large enhancement at negative potentials
Compound: PI(3,5)P2
effect on ITPC1-R540I (in words) (hTPC1^R540I): large currents at all potentials | voltage dependence of TPC2 activation (in words) (hTPC2): voltage independent; also recorded: no apparent voltage-dependent activation | PX / PNa, K+ (hTPC2; individual): 0.02921 and 0.09237 and 0.08877 and 0.01887 | activation of whole-endolysosome ITPC2 (in words) (hTPC2; bath application, symmetric Na^+): activated a large whole-endolysosome ITPC2 with linear I-V | PX / PNa, K+ (TPC2^N653G; individual): 0.5092 and 0.6027 and 0.4961 and 0.3927 | PX / PNa, K+ (TPC2^N653G; mean): 0.5002
